From PMC5587642, “A Novel Benzocoumarin-Stilbene Hybrid as a DNA ligase I inhibitor with in vitro and in vivo anti-tumor activity in breast cancer models” (Scientific Reports, 2017)

How the values were obtained:
[1] = target: T1, flap cleavage activity (FEN1) in MDA-MB-231 cell lysate (Homo sapiens, UniProt P39748); experiment: Ex-vivo flap cleavage with lysate of treated cells; format: cell-based; settings: MDA-MB-231, treated 48 h
T1 construct: endogenous in cells; host or cells: MDA-MB-231
Procedure: (§1) Cells (MDA-MB-231) were seeded in 6 well plates and treated either with vehicle control (DMSO) or with different concentrations (6 and 12 µM) of compound 19 for 48 h. After the treatment cell lysate was prepared and western blotting was performed as described previously. Briefly, the cells were lysed by very brief sonication. Sonicated samples were centrifuged and the supernatant was collected and used for ligation assay and western blotting.
The MDA-MB-231 and 4T1 cells were treated with different concentrations of compound 19 for 48h. Cell lysate were prepared as described previously ^6 for the ligation assay. Here we used same DNA substrate which was used in FEN1 flap cleavage assay so that we can check the activity of hLigI and FEN1 proteins in compound 19 treated samples. The reactions were performed as described previously ^6. In the Supplementary Fig. 74 cleaved product remain (25 mer) same. This cleaved product occurs after the cleavage of 25+6 mer oligo by FEN1 protein, since the cleaved product (25 mer) remains same in treated as well as in control samples we can conclude that the compound 19 unable to inhibit the FEN1 protein inside the cells. The cleaved product (25 mer) make a double strand nicked substrate for hLig I protein with 27 mer and 52 mer oligo used in the reaction. hLigI protein gives rise to ligated (52 mer oligo) product after the completion of reaction. […]

hLigI = target: T2, hLigI (Homo sapiens, UniProt P18858); experiment: In-vitro fluorescence quenching assay; format: binding; settings: 5 and 10 µM, excitation 280 nm
T2 construct: made in house
Procedure: In-vitro fluorescence quenching assay was performed as described previously[16] with brief modifications. At the fixed excitation wavelength 280 nm emission spectra of hLigI (100 pmol) was recorded from 300 to 400 nm in the presence (5 and 10 µM) or absence of compound 19 by spectrofluorometer. Compound 19 was used at 5 and 10 µM concentration with hLigI (100 pmol). Spectra was acquired for buffer alone (50 mM Tris-HCl, pH 7.5, 50 mM NaCl, 1 mM ATP, 10 mM MgCl2, 2 mM DTT and 5% glycerol), buffer with vehicle control, buffer with inhibitor alone and for buffer with protein and inhibitor.

[2] = Metabolic stability in rat liver microsomes; format: in vitro ADME
Procedure: Major drug clearance in the body occurs due to its metabolism in the liver. Metabolic stability in rat liver microsomes (RLM) was conducted in triplicate. Compound 19 (5 µM) was incubated in reaction milieu which contains RLM (0.5 mg/ml), MgCl2 (10 mM), NADPH (10 mM) in a 1.5 ml phosphate buffer solution (pH 7.4). Reaction was started by the addition of NADPH and kept in a shaking water bath at 37 °C. Organic content in reaction mixture was kept less than 1%. Time points at which samples were withdrawn were 0, 5, 15, 30, 45, 60 min. Testosterone was used as control to know the RLM enzyme activity. Control reaction without NADPH was performed to explore any chemical instability or non-cofactor dependent enzymatic degradation. At each time point 150 µL aliquots were withdrawn and added in 150 µL ACN, […] at 10,000 g for 5 minutes, 100 µL samples was pipetted out & analyzed in HPLC-PDA.

FEN1 protein = target: T3, FEN1 protein (Homo sapiens, UniProt P39748); experiment: Flap cleavage assay; format: biochemical; settings: compound 19 at 5, 10, 20 µM
T3 construct: His-tag (C); made in house; host or cells: E. coli BL21DE3
Procedure: Purification of FEN 1: Full length FEN1 DNA template was taken from pShuttle-FEN1hWT, a gift from Sheila Stewart (Addgene plasmid#35027) is subcloned into a pET41a expression vector containing C-terminal His-tag. pET41FEN1His freshly transformed into expression host BL21DE3 E. coli cells (Novagene), single colonies picked and inoculated in 5ml of LB media containing 50μg/ml of Kanamycin, grown for 3 to 4 hrs and further subcultured in 100 ml of LB medium containing 50μg/ml of Kanamycin and grown at 37°C till the OD reached to 0.6-0.7, induced at 0.5 mM IPTG at 16°C for 18hrs. Pellets were collected and lysed in 20 mM tris 150 mM NaCl (Lysis buffer) containing 1mM PMSF and 1mM benzamidine hydrochloride and purified by Ni-NTA affinity chromatography.
Flap cleavage assay: All oligos were purchased from Integrated DNA Technologies and dissolved in nuclase free water at concentration of 100μM. FAM-labeled 25+6 Flap-mer (5’-[…]-3’*6FAM)) was annealed with 52- mer (5’-[…]-3’) and 27-mer (5’-[…]-3’) to form a complementary double strand flap cleavage substrate. […] The cleaved and uncleaved DNA molecules are separated on 15% Urea gel and bands were detected by Image Quant LAS 4010 (GE Healthcare).

MDA-MB-231 cells [3] = experiment: Western blotting of DNA damage and apoptosis markers; format: cell-based, human; settings: 6 and 12 µM, 48 h
Procedure: as §1

MDA-MB-231 cells [4] = experiment: Comet assay; format: cell-based, human; settings: 12 µM, 48 h
Procedure: Comet assay was performed as described by Olive et al ^3 with slight modifications. MDA-MB-231 cells treated with compound 19 at 12µM for 48h. The harvested cells were mixed with low melting point agarose and pipet the 200μl of cell suspension onto agarose coated surface of frosted slides. The samples were lysed for overnight at 4 °C after the lysis, electrophoresis performed at 40mA for 30mins. The slides neutralized by water, stained with propidium iodide and images were captured by fluorescence microscope. As shown in Supplementary Fig. 71 the treated samples (B) have increased length of DNA tail as compared to control sample (A). This increase in the tail length of DNA occurs due to DNA damage which is induced by compound 19 in MDA-MB-231 cells.

MDA-MB-231 cells [5] = experiment: Scratch (migration) assay; format: cell-based, human; settings: 3 and 6 µM; 12 and 24 h
Procedure: The migration capacity of highly metastatic human breast cancer MDA-MB-231 cells was assessed by in-vitro scratch assay as described previously[36] with some modifications. Briefly, cells were plated in 12 well plates and a scratch was created by scraping the cells with a sterile 10 μL pipet tip in the middle of the culture well. After removal of cellular debris, the cells were treated with different concentrations of the test compound. Images of the wound area were captured at 0, 12 and 24 h post-treatment. Wound area was measured by TScratch software and data were expressed as percent (%) open area of control and treated cells.

T2 sequence (P18858 whole entry): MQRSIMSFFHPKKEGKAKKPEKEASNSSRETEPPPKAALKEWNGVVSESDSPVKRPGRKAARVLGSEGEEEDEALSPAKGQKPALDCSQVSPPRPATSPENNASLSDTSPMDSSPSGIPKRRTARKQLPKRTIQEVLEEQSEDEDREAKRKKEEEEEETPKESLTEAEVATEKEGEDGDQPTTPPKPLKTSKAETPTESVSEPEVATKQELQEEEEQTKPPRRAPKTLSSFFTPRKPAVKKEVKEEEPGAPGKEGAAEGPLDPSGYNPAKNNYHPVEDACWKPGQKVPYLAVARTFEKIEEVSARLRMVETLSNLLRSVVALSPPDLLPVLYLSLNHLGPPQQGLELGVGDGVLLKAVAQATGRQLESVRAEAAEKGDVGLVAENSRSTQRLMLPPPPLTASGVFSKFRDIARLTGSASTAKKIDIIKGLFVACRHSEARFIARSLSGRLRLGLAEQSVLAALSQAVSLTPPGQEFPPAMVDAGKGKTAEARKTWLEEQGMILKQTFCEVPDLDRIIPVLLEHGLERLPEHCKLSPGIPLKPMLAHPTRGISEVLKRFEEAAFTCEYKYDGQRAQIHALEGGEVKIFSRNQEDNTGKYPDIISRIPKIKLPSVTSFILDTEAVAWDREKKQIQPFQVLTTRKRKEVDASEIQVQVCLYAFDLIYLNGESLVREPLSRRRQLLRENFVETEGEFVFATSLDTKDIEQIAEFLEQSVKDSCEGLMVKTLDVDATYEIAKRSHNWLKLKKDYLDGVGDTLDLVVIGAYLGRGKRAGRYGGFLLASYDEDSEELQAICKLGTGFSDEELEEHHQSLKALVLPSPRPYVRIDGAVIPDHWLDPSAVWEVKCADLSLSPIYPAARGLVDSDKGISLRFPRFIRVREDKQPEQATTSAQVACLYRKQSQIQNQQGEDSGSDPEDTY
T1 sequence (P39748 whole entry): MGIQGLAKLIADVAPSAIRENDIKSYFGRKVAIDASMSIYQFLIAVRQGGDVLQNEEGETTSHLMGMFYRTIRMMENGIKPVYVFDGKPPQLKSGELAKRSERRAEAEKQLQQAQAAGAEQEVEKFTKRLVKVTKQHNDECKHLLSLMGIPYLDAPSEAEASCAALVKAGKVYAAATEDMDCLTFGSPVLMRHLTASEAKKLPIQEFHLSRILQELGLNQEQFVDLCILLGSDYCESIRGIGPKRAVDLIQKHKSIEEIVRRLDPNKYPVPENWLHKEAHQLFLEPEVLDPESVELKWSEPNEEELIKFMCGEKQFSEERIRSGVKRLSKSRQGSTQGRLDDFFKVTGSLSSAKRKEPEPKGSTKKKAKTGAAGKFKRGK
T3 sequence (P39748 whole entry): as above

COc1cc(/C=C/c2cc(=O)oc3c2ccc2ccccc23)cc(OC)c1 [Compound 19, (E)-4-(3,5-dimethoxystyryl)-2H-benzo[h]chromen-2-one]
Flap cleavage activity of lysate of treated cells [1]: remained unaffected | Change of hLigI fluorescence spectra (protein binding) (hLigI): fluorescence spectra of the full length hLigI protein changed | Microsomal metabolic stability ([2]; 5 µM, RLM 0.5 mg/ml, NADPH, up to 60 min): 55.5 ± 4.77% | Stability in control reaction in the absence of cofactor ([2]; RLM without NADPH): stable | Inhibition of FEN1 flap cleavage activity (FEN1 protein): not able to inhibit | Apoptotic signaling (p53, MDM2, PCNA, caspase 9, caspase 3, PARP-1) (MDA-MB-231 cells [3]): promotes p53 mediated intrinsic pathway of apoptosis | DNA damage marker γH2AX expression (MDA-MB-231 cells [3]): increased expression of γH2AX | DNA tail length (comet assay) (MDA-MB-231 cells [4]): significant increase in the tail length of treated cells | Cell migration (percent open area) (MDA-MB-231 cells [5]): significantly inhibit the cell migration
